Test results taken from patent US9238005B2, “Dry powder formulations and methods for treating pulmonary diseases” (Pulmatrix Operating Company, Inc., priority 2009, dated 2016).

Tests used:
[1] = Heat of solution in HBSS buffer; type: physicochemical; conditions: Avg.; for ΔH (kJ/mol) / ΔH (kcal/mol): HBSS buffer, per mol Ca, leucine per mol Leu; for Q / ΔT (deg. C): dissolution in HBSS buffer
[2] = Volume median geometric diameter (x50/VMGD) and GSD by laser diffraction, HELOS/RODOS; type: physicochemical
Experimental: Volume median diameter (×50), which may also be referred to as volume median geometric diameter (VMGD), was determined using a laser diffraction technique. […] The RODOS disperser applies a shear force to a sample of particles, controlled by the regulator pressure (typically set at 1.0 bar with orifice ring pressure set at 7 mbar) of the incoming compressed dry air. […] The dispersed particles travel through a laser beam where the resulting diffracted light pattern produced is collected, typically using an R2 lens, by a series of detectors.

[3] = Fine particle fraction, two-stage collapsed Andersen Cascade Impactor (ACI-2); conditions: spray dried from 70% ethanol, 50 g/L
[4] = Dispersibility from passive dry powder inhalers (CEPM, Dv50, FPF vs inhalation energy); type: physicochemical; conditions: for average CEPM, share of capsule fill weight: 9.2 Joules (60 L/min for 2 L); for average Dv50: 9.2 Joules; for Dv50: measured lower energies
Experimental: The dispersibility of various powder formulations was investigated by measuring the geometric particle size and the percentage of powder emitted from capsules when inhaling on dry powder inhalers with flow rates representative of patient use. The particle size distribution and weight change of the filled capsules were measured for multiple powder formulations as a function of flow rate, inhaled volume and fill weight in 2 passive dry powder inhalers.
In order to relate the dispersion of powder at different flow rates, volumes, and from inhalers of different resistances, the energy required to perform the inhalation maneuver was calculated and the particle size and dose emission data plotted against the inhalation energy. Inhalation energy was calculated as E=R^2Q^2V where E is the inhalation energy in Joules, R is the inhaler resistance in kPa^1/2/LPM, Q is the steady flow rate in L/min and V is the inhaled air volume in L.

[5] = high resistance RS-01, 25 mg fill weight
[6] = high resistance RS-01, 40 mg fill weight
[7] = RS.01.HR, fill 25 mg, 15 LPM, 4 s, 0.29 J
[8] = RS.01.HR, fill 25 mg, 20 LPM, 3 s, 0.51 J
[9] = RS.01.HR, fill 25 mg, 30 LPM, 2 s, 1.15 J
[10] = RS.01.HR, fill 25 mg, 60 LPM, 2 s, 9.18 J
[11] = RS.01.HR, fill 40 mg, 15 LPM, 4 s, 0.29 J
[12] = RS.01.HR, fill 40 mg, 20 LPM, 3 s, 0.51 J
[13] = RS.01.HR, fill 40 mg, 30 LPM, 2 s, 1.15 J
[14] = RS.01.HR, fill 40 mg, 60 LPM, 2 s, 9.18 J
[15] = RS.01.LR, fill 25 mg, 60 LPM, 2 s, 2.85 J
[16] = RS.01.LR, fill 40 mg, 60 LPM, 2 s, 2.85 J
[17] = all measured lower energies (<9.2 Joules), 25 and 40 mg fill weights

For O.O.[Ca+2].[Cl-].[Cl-] [CaCl2.2H2O], the “ΔH (kJ/mol)” value [1] was -50.6 kJ/mol, the “ΔH (kcal/mol)” value [1] was -12.1 kcal/mol and the “Q” value [1] was 2.93 cal. For the same compound, the “ΔT (deg. C)” value [1] was 0.024 deg. C.
With CC(C)C[C@H](N)C(=O)O [Leucine] the “ΔH (kJ/mol)” value [1] was -6 kJ/mol, the “ΔH (kcal/mol)” value [1] was -1.5 kcal/mol and the “Q” value [1] was 0.37 cal. The “ΔT (deg. C)” value [1] was 0.003 deg. C.
With [Cl-].[Cl-].[Mg+2] [Pure magnesium chloride, magnesium chloride] the “median volume particle size” value ([2]; spray dried from 70% ethanol, 50 g/L) was 4 microns, the “median particle size (HELOS/RODOS)” value ([2]; spray dried from D.I. water, 20 g/L) was 21 microns and the “fine particle fraction less than 5.6 microns” value [3] was 19%.
With “albuterol sulfate [Micronized Albuterol 073-001-02-039A]” the “average CEPM, share of capsule fill weight” value [4, 5] was 93%, the “average CEPM, share of capsule fill weight” value [4, 6] was 84% and the “average Dv50” value [4, 5] was 1.8 μm. The “average Dv50” value [4, 6] was 1.6 μm, the “Mean CEPM” value [4, 7] was 3.12 mg and the “Mean Dv50” value [4, 7] was 16.76 μm. The “Mean FPF, % < 5 μm” value [4, 7] was 13.00%, the “Mean CEPM” value [4, 8] was 5.00 mg and the “Mean Dv50” value [4, 8] was 8.40 μm. The “Mean FPF, % < 5 μm” value [4, 8] was 32.10%, the “Mean CEPM” value [4, 9] was 7.08 mg and the “Mean Dv50” value [4, 9] was 3.86 μm. The “Mean FPF, % < 5 μm” value [4, 9] was 59.44%, the “Mean CEPM” value [4, 10] was 23.18 mg and the “Mean Dv50” value [4, 10] was 1.77 μm. For the same compound, the “Mean FPF, % < 5 μm” value [4, 10] was 81.65%, the “Mean CEPM” value [4, 11] was 2.43 mg and the “Mean Dv50” value [4, 11] was 17.63 μm. The “Mean FPF, % < 5 μm” value [4, 11] was 10.73%, the “Mean CEPM” value [4, 12] was 4.97 mg and the “Mean Dv50” value [4, 12] was 6.34 μm. The “Mean FPF, % < 5 μm” value [4, 12] was 42.24%, the “Mean CEPM” value [4, 13] was 8.55 mg and the “Mean Dv50” value [4, 13] was 3.13 μm. The “Mean FPF, % < 5 μm” value [4, 13] was 67.18%, the “Mean CEPM” value [4, 14] was 33.40 mg and the “Mean Dv50” value [4, 14] was 1.60 μm. The “Mean FPF, % < 5 μm” value [4, 14] was 84.30%, the “Mean CEPM” value [4, 15] was 15.28 mg and the “Mean Dv50” value [4, 15] was 2.57 μm. The “Mean FPF, % < 5 μm” value [4, 15] was 75.01%, the “Mean CEPM” value [4, 16] was 18.88 mg and the “Mean Dv50” value [4, 16] was 2.62 μm. The “Mean FPF, % < 5 μm” value [4, 16] was 73.98%, the CEPM [4, 17] was “below 10 mg” and the “CEPM, share of capsule fill weight” value [4, 17] was < 30%. It also gave a Dv50 ([4]; 25 mg fill weight) of 3.9 μm and a Dv50 ([4]; 40 mg fill weight) of 3.1 μm.
